Experimental data taken from US20230081426A1, “COMPOUNDS AND METHODS FOR KRAS MODULATION AND INDICATIONS THEREFOR” (Plexxikon Inc., priority 2020, published 2023).

Legend:
[1] = target: T1, G12C-mutant human KRAS (amino acid residues 1-188) (Homo sapiens, UniProt P01116, G12C); test: KRAS Binding Disruption Assay (AlphaScreen; biotinylated KRpep-2d analogue or RAF1-RBD), G12C; details: geometric mean, read-out: KRAS GMean IC50 (uM) MUTATION: G12C
T1 construct: G12D or G12C-mutant human KRAS (amino acid residues 1-188) with FLAG tag; made in house; host or cells: E. coli
Method in brief: (§1)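 AlphaScreen readout: signal falls as compound displaces biotinylated KRpep-2d analogue or RAF1-RBD from mutant KRAS. Both partners at 5-20 nM, 1 h binding at 25° C, then 10 μg/mL Anti-Flag acceptor and streptavidin donor beads for 1 h. IC50 by nonlinear regression of % inhibition.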

[2] = target: T2, G12D-mutant human KRAS (amino acid residues 1-188) (Homo sapiens, UniProt P01116, G12D); test: KRAS Binding Disruption Assay (AlphaScreen; biotinylated KRpep-2d analogue or RAF1-RBD), G12D; details: KRAS G12D; geometric mean; read-out: KRAS GMean IC50 (uM) MUTATION: G12D
T2 construct: G12D or G12C-mutant human KRAS (amino acid residues 1-188) with FLAG tag; made in house; host or cells: E. coli
Method in brief: as §1

[3] = target: T3, G12V-mutant human KRAS (amino acid residues 1-188) (Homo sapiens, UniProt P01116, G12V); test: KRAS Binding Competition Assay (AlphaScreen; biotinylated KRpep-2d analogue), G12V; details: geometric mean, read-out: KRAS GMean IC50 (uM) MUTATION: G12V
T3 construct: G12V-mutant human KRAS (amino acid residues 1-188) with FLAG tag was purified from E. coli; made in house; host or cells: E. coli

Measured: IC50

O=C1NC(=O)[C@H](CC(=O)N2[C@@H]3CC[C@H]2CN(c2nc(OCC45CCCN4CCC5)nc4c(F)c(-c5cc(O)cc6ccccc56)ccc24)C3)N1 [P-0415, (S)-5-(2-((1R,5S)-3-(8-fluoro-7-(3-hydroxynaphthalen-1-yl)-2-((tetrahydro-1H-pyrrolizin-7a(5H)-yl)methoxy)quinazolin-4-yl)-3,8-diazabicyclo[3.2.1]octan-8-yl)-2-oxoethyl)imidazolidine-2,4-dione]
0.0001 to 10 µM: all assays above

O=C1NC(=O)/C(=C/C(=O)N2[C@@H]3CC[C@H]2CN(c2nc(OCC45CCCN4CCC5)nc4c(F)c(-c5cc(O)cc6ccccc56)ccc24)C3)S1 [P-0443, (Z)-5-(2-((1R,5S)-3-(8-fluoro-7-(3-hydroxynaphthalen-1-yl)-2-((tetrahydro-1H-pyrrolizin-7a(5H)-yl)methoxy)quinazolin-4-yl)-3,8-diazabicyclo[3.2.1]octan-8-yl)-2-oxoethylidene)thiazolidine-2,4-dione]
0.0001 to 10 µM: all assays above

CN1CCC[C@H]1COc1nc(N2C[C@H]3CC[C@@H](C2)N3C(=O)CC2SC(=O)NC2=O)c2cc(F)c(-c3cc(O)cc4ccccc34)c(F)c2n1 (stereo partly drawn) [P-0463, 5-(2-((1R,5S)-3-(6,8-difluoro-7-(3-hydroxynaphthalen-1-yl)-2-(((S)-1-methylpyrrolidin-2-yl)methoxy)quinazolin-4-yl)-3,8-diazabicyclo[3.2.1]octan-8-yl)-2-oxoethyl)thiazolidine-2,4-dione]
0.0001 to 10 µM: all assays above

C=CC(=O)N1[C@@H]2CC[C@H]1CN(c1nc(OC[C@@]34CCCN3C[C@H](F)C4)nc3c(F)c(-c4cc(O)cc5cccc(Cl)c45)ccc13)C2 [P-0502, 1-((1R,5S)-3-(7-(8-chloro-3-hydroxynaphthalen-1-yl)-8-fluoro-2-(((2R,7aS)-2-fluorotetrahydro-1H-pyrrolizin-7a(5H)-yl)methoxy)quinazolin-4-yl)-3,8-diazabicyclo[3.2.1]octan-8-yl)prop-2-en-1-one]
0.0001 to 10 µM: all assays above

N#CCC(=O)N1[C@@H]2CC[C@H]1CN(c1nc(OC[C@@]34CCCN3C[C@H](F)C4)nc3c(F)c(-c4cc(O)cc5cccc(Cl)c45)ccc13)C2 [P-0504, 3-((1R,5S)-3-(7-(8-chloro-3-hydroxynaphthalen-1-yl)-8-fluoro-2-(((2R,7aS)-2-fluorotetrahydro-1H-pyrrolizin-7a(5H)-yl)methoxy)quinazolin-4-yl)-3,8-diazabicyclo[3.2.1]octan-8-yl)-3-oxopropanenitrile]
0.0001 to 10 µM: all assays above

Oc1cc(-c2ccc3c(N4C[C@H]5CC[C@@H](C4)N5)nc(OC[C@@]45CCCN4C[C@H](F)C5)nc3c2F)c2c(Cl)cccc2c1 [P-0510, 4-(4-((1R,5S)-3,8-diazabicyclo[3.2.1]octan-3-yl)-8-fluoro-2-(((2R,7aS)-2-fluorotetrahydro-1H-pyrrolizin-7a(5H)-yl)methoxy)quinazolin-7-yl)-5-chloronaphthalen-2-ol]
0.0001 to 10 µM: all assays above
